Assay results: patent publication US11274085B2, “3-aryl-bicyclic [4,5,0] hydroxamic acids as HDAC inhibitors” (Valo Health, Inc., priority 2015, dated 2022)
pIC50: −log10 of the molar value.

target: T1, human recombinant HDAC6 (Homo sapiens, UniProt Q9UBN7); assay: In vitro histone deacetylase assay: enzymatic HDAC6 electrophoretic mobility shift assay; assay type: biochemical; details: full length human recombinant HDAC6 1 nM, 2 μM peptide substrate RHKK(Ac)-NH2, 25° C.; read-out: Inhibitory Concentration (IC50) against HDAC6, Activity Range
T1 sequence (Q9UBN7 1-1215): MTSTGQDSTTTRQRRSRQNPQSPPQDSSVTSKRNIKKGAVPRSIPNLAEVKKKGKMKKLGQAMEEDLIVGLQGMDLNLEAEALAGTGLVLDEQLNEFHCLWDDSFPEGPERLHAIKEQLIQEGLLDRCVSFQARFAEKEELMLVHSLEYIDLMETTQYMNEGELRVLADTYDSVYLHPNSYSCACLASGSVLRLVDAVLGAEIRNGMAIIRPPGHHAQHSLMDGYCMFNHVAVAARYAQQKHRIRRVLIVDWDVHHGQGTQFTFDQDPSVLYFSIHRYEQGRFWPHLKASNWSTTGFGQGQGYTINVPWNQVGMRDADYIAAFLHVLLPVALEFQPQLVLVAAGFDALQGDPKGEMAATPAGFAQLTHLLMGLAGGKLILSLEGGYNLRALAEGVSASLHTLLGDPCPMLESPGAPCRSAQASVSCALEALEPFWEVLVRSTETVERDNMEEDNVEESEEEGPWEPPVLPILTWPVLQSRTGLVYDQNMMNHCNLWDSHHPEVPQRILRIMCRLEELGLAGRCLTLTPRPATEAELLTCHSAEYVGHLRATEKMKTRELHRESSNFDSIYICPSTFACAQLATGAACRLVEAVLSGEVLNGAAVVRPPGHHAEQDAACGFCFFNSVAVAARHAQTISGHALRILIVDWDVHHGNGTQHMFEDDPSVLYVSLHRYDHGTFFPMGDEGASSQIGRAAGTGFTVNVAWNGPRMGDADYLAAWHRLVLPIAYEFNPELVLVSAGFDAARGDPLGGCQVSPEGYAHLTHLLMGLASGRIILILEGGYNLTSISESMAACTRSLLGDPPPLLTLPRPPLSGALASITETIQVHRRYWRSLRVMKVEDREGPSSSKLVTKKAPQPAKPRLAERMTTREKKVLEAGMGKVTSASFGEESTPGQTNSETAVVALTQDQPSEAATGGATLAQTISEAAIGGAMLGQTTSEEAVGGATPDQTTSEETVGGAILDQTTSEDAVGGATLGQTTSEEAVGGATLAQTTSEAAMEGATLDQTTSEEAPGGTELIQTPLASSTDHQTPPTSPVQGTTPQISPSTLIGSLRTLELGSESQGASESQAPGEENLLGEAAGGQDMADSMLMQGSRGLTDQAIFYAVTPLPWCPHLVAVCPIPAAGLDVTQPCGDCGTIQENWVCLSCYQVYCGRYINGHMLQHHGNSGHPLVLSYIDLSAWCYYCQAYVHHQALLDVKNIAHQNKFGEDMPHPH
Experimental: The enzymatic HDAC6 assay was performed using electrophoretic mobility shift assay. […] The enzymatic reactions were assembled in 384 well plates and in a total volume of 25 μL in a reaction buffer comprising: 100 mM HEPES, pH 7.5, 25 mM KCl, 0.1% bovine serum albumin, 0.01% Triton X-100, 1% DMSO (from compounds), 2 μM of the fluorescently labeled peptide substrate, and enzyme. The enzyme was added at a final concentration of 1 nM and the peptide substrate RHKK(Ac)—NH2 was used. The compounds were tested at 12 concentrations spaced by 3× dilution intervals. Negative control samples (0%-inhibition in the absence of inhibitor) and positive control samples (100%-inhibition) were assembled in replicates of four in each assay plate. The reactions were incubated at 25° C. and quenched by the addition of 45 μL of termination buffer (100 mM HEPES, pH 7.5, 0.01% Triton X-100, 0.05% SDS).
The terminated assay plates were analyzed on LabChip® 3000 microfluidic electrophoresis instrument (Perkin Elmer/Caliper Life Sciences). The fluorescence intensity of the electrophoretically separated de-acetylated product and substrate peptide was measured. Activity in each sample was determined as the product to sum ratio (PSR):P/(S+P), where P is the peak height of the product peptide and S is the peak height of the substrate peptide. Percent inhibition (Pinh) is determined using the following equation: Pinh=(PSR0%−PSRinh)/(PSR0%−PSR100%)*100, where PSRinh is the product sum ratio in the presence of inhibitor, PSR0% is the average product sum ration in the absence of inhibitor, and PSR100% is the average product sum ratio in 100%-inhibition control samples. The IC50 values of inhibitors were determined by fitting the %-inhibition curves with 4 parameter dose-response model using XLfit 4 software.
As set forth in Table 4, below, IC50 values are defined as follows: IC50≤0.1 μM (+++); IC50>0.1 μM and ≤0.5 μM (++); IC50>0.5 μM (+).

| pIC50 | Compound |
| --- | --- |
| < 6.30 | O=C(NO)c1ccc2c(c1)OC[C@@H](c1cccnc1)N(C(=O)N1CCOCC1)C2 (single isomer, unassigned) |
| ≥ 7.00 | O=C(NO)c1ccc2c(c1)OC[C@H](c1cccnc1)N(C(=O)N1CCOCC1)C2 (single isomer, unassigned) |
| 6.30 to 7.00 | O=C(NO)c1ccc2c(c1)OC[C@@H](c1ccccc1)N(c1ccccc1)C2 [(R)-N-hydroxy-3,4-diphenyl-2,3,4,5-tetrahydrobenzo[f][1,4]oxazepine-8-carboxamide] |
| ≥ 7.00 | COc1ccc(CN2Cc3ccc(C(=O)NO)cc3OC[C@H]2c2ccccc2)cc1 [(R)-N-hydroxy-4-(4-methoxybenzyl)-3-phenyl-2,3,4,5-tetrahydrobenzo[f][1,4]oxazepine-8-carboxamide] |
| ≥ 7.00 | CN1Cc2ccc(C(=O)NO)cc2OC[C@H]1c1ccccc1 [(R)-N-hydroxy-4-methyl-3-phenyl-2,3,4,5-tetrahydrobenzo[f][1,4]oxazepine-8-carboxamide] |
| ≥ 7.00 | O=C(NO)c1ccc2c(c1)OC[C@H](c1cccc(Cl)c1)N(C(=O)N1CCOCC1)C2 [(S)-3-(3-chlorophenyl)-N-hydroxy-4-(morpholine-4-carbonyl)-2,3,4,5-tetrahydrobenzo[f][1,4]oxazepine-8-carboxamide] |
| ≥ 7.00 | O=C(NO)c1ccc2c(c1)OC[C@H](c1ccc(Cl)cc1)N(C(=O)N1CCOCC1)C2 [(S)-3-(4-chlorophenyl)-N-hydroxy-4-(morpholine-4-carbonyl)-2,3,4,5-tetrahydrobenzo[f][1,4]oxazepine-8-carboxamide] |
| ≥ 7.00 | O=C(NO)c1ccc2c(c1)OC[C@H](c1ccc(F)cc1)N(C(=O)N1CCOCC1)C2 [(S)-3-(4-fluorophenyl)-N-hydroxy-4-(morpholine-4-carbonyl)-2,3,4,5-tetrahydrobenzo[f][1,4]oxazepine-8-carboxamide] |
| ≥ 7.00 | CC(=O)N1CCN(C(=O)N2Cc3ccc(C(=O)NO)cc3OC[C@@H]2c2ccccc2)CC1 [(S)-4-(4-acetylpiperazine-1-carbonyl)-N-hydroxy-3-phenyl-2,3,4,5-tetrahydrobenzo[f][1,4]oxazepine-8-carboxamide] |
| 6.30 to 7.00 | O=C(NO)c1ccc2c(c1)OC[C@H](c1ccccc1)N(S(=O)(=O)c1ccc(F)cc1)C2 [(S)-4-((4-fluorophenyl)sulfonyl)-N-hydroxy-3-phenyl-2,3,4,5-tetrahydrobenzo[f][1,4]oxazepine-8-carboxamide] |
| ≥ 7.00 | O=C(NO)c1ccc2c(c1)OC[C@H](c1ccccc1)N(C(=O)NC1CCCCC1)C2 [(S)-N4-cyclohexyl-N8-hydroxy-3-phenyl-2,3-dihydrobenzo[f][1,4]oxazepine-4,8(5H)-dicarboxamide] |
| ≥ 7.00 | O=C(NO)c1ccc2c(c1)OC[C@H](c1ccccc1)N(C(=O)Nc1cccnc1)C2 [(S)-N8-hydroxy-3-phenyl-N4-(pyridin-3-yl)-2,3-dihydrobenzo[f][1,4]oxazepine-4,8(5H)-dicarboxamide] |
| ≥ 7.00 | O=C(NO)c1ccc2c(c1)OC[C@H](c1ccccc1)N(C(=O)Nc1ccncc1)C2 [(S)-N8-hydroxy-3-phenyl-N4-(pyridin-4-yl)-2,3-dihydrobenzo[f][1,4]oxazepine-4,8(5H)-dicarboxamide] |
| ≥ 7.00 | O=C(NO)c1ccc2c(c1)OC[C@H](c1ccccc1)N(C(=O)NC1CCOCC1)C2 [(S)-N8-hydroxy-3-phenyl-N4-(tetrahydro-2H-pyran-4-yl)-2,3-dihydrobenzo[f][1,4]oxazepine-4,8(5H)-dicarboxamide] |
| ≥ 7.00 | O=C(NO)c1ccc2c(c1)OC[C@H](c1ccccc1)N(C(=O)Nc1ccccc1)C2 [(S)-N8-hydroxy-N4,3-diphenyl-2,3-dihydrobenzo[f][1,4]oxazepine-4,8(5H)-dicarboxamide] |
| ≥ 7.00 | CN(C)C(=O)N1Cc2ccc(C(=O)NO)cc2OC[C@@H]1c1ccccc1 [(S)-N8-hydroxy-N4,N4-dimethyl-3-phenyl-2,3-dihydrobenzo[f][1,4]oxazepine-4,8(5H)-dicarboxamide] |
| ≥ 7.00 | O=C(NO)c1ccc2c(c1)OC[C@H](c1ccccc1)N(c1ccccc1)C2 [(S)-N-hydroxy-3,4-diphenyl-2,3,4,5-tetrahydrobenzo[f][1,4]oxazepine-8-carboxamide] |
| ≥ 7.00 | O=C(NO)c1ccc2c(c1)OC[C@H](c1ccccc1)N(C(=O)N1CCCCC1)C2 [(S)-N-hydroxy-3-phenyl-4-(piperidine-1-carbonyl)-2,3,4,5-tetrahydrobenzo[f][1,4]oxazepine-8-carboxamide] |
| ≥ 7.00 | O=C(NO)c1ccc2c(c1)OC[C@H](c1ccccc1)N(C(=O)N1CCCC1)C2 [(S)-N-hydroxy-3-phenyl-4-(pyrrolidine-1-carbonyl)-2,3,4,5-tetrahydrobenzo[f][1,4]oxazepine-8-carboxamide] |
| ≥ 7.00 | COc1ccc(CN2Cc3ccc(C(=O)NO)cc3OC[C@@H]2c2ccccc2)cc1 [(S)-N-hydroxy-4-(4-methoxybenzyl)-3-phenyl-2,3,4,5-tetrahydrobenzo[f][1,4]oxazepine-8-carboxamide] |
| ≥ 7.00 | COC1CCN(C(=O)N2Cc3ccc(C(=O)NO)cc3OC[C@@H]2c2ccccc2)CC1 [(S)-N-hydroxy-4-(4-methoxypiperidine-1-carbonyl)-3-phenyl-2,3,4,5-tetrahydrobenzo[f][1,4]oxazepine-8-carboxamide] |
| ≥ 7.00 | CN1CCN(C(=O)N2Cc3ccc(C(=O)NO)cc3OC[C@@H]2c2ccccc2)CC1 [(S)-N-hydroxy-4-(4-methylpiperazine-1-carbonyl)-3-phenyl-2,3,4,5-tetrahydrobenzo[f][1,4]oxazepine-8-carboxamide] |
| ≥ 7.00 | O=C(NO)c1ccc2c(c1)OC[C@H](c1ccc(C(F)(F)F)cc1)N(C(=O)N1CCOCC1)C2 [(S)-N-hydroxy-4-(morpholine-4-carbonyl)-3-(4-(trifluoromethyl)phenyl)-2,3,4,5-tetrahydrobenzo[f][1,4]oxazepine-8-carboxamide] |
| ≥ 7.00 | Cc1ccc([C@H]2COc3cc(C(=O)NO)ccc3CN2C(=O)N2CCOCC2)cc1 [(S)-N-hydroxy-4-(morpholine-4-carbonyl)-3-(p-tolyl)-2,3,4,5-tetrahydrobenzo[f][1,4]oxazepine-8-carboxamide] |
| ≥ 7.00 | O=C(NO)c1ccc2c(c1)OC[C@H](c1ccccc1)N(C(=O)N1CCOCC1)C2 [(S)-N-hydroxy-4-(morpholine-4-carbonyl)-3-phenyl-2,3,4,5-tetrahydrobenzo[f][1,4]oxazepine-8-carboxamide] |
| ≥ 7.00 | CN1Cc2ccc(C(=O)NO)cc2OC[C@@H]1c1ccccc1 [(S)-N-hydroxy-4-methyl-3-phenyl-2,3,4,5-tetrahydrobenzo[f][1,4]oxazepine-8-carboxamide] |
